Measured values from patent US11680061B2, “Crystal forms C and E of pyrazin-2(1H)-one compound and preparation method therefor” (ZHANGZHOU PIEN TZE HUANG PHARMACEUTICAL CO., LTD., priority 2019, dated 2023).

Experiments:
[1] = Pharmacokinetic evaluation in mice, single intragastric administration; format: in vivo, CD-1 mice (male)
Description: Experimental Purposes: To Test the Pharmacokinetics of the Compound in Mice
CD-1 mice (male), vehicle (0.5% (w/v) methylcellulose 0.5% (v/v) Tween 80 aqueous solution), trifluoroacetate salt of compound 0027.
The vehicle was 0.5% (w/v) methylcellulose and 0.5% (v/v) Tween 80 aqueous solution, and the formulation was prepared according to the following procedure: […]
Preparation of formulation for intragastric administration: […]
Animals in groups 1 and 2 were given 5 mg/mL and 30 mg/mL compound by single intragastric administration, respectively, with a dose volume of 10 mL/kg.
The animals were weighed before administration, and the administration volume was calculated according to the body weight.
Whole blood samples (30 μL) were collected at specified times (0.25, 0.5, 1, 2, 4, 6, 8, 24 hours) by saphenous vein collection and the actual time of collection was recorded in the test record. The acceptable error for the collection time points was ±1 minute for time points within 1 hour of administration and ±5% of the theoretical time for other time points.
All blood samples were immediately transferred to labeled commercial centrifuge tubes containing K2-EDTA. […] And the pharmacokinetic parameters were calculated, experimental result: See Table 5.

[2] = Hygroscopicity study by dynamic vapor sorption (DVS); format: physicochemical; conditions: 25° C. and 80% RH
Description: Dynamic Vapor Sorption (DVS) Method in the Present Disclosure
Instrument model: SMS DVS Advantage dynamic vapor sorption instrument
Test conditions: samples (10 mg to 15 mg) were placed in a DVS sample tray for testing.
Detailed DVS parameters are as follows:
Balance: dm/dt=0.01%/min (shortest: 10 min, longest: 180 min)
Drying: 120 min under 0% RH
RH (%) test step range: 0% to 90% to 0%
The evaluation classification of hygroscopicity was as follows:
10 to 15 mg of the crystal form C of the compound of formula (II) was placed in the DVS sample tray for testing.
10 to 15 mg of the crystal form E of the compound of formula (II) was placed in the DVS sample tray for testing.

Row | SMILES | Tlast ([1]; CD-1 mice, intragastric, 300 mpk, plasma) [h] | pharmacokinetic index in mice ([1]; conclusion in words) | Classification of hygroscopicity [2] | ΔW, hygroscopic weight gain [2] [%]
1 | COc1cc(OC)c(Cl)c(-c2nc(-c3nc(-c4cn(C)nc4C)cnc3N)cn(C)c2=O)c1 | 24.0 | good | – | –
2 | COc1cc(OC)c(Cl)c(-c2nc(-c3nc(-c4cn(C)nc4C)cnc3N)cn(C)c2=O)c1 [crystal form C of the compound of formula (II)] | – | – | slightly hygroscopic | 1.1
3 | COc1cc(OC)c(Cl)c(-c2nc(-c3nc(-c4cn(C)nc4C)cnc3N)cn(C)c2=O)c1 [crystal form E of the compound of formula (II)] | – | – | slightly hygroscopic | 0.5
